Test results published in ChEMBL document CHEMBL3045456, “Biological Activity of Carpropamid (KTU 3616)” (1997).
Activity calls are given as the source filed them.

Columns and labels:
Thanatephorus cucumeris [1] = assay: Antifungal activity against Thanatephorus cucumeris assessed as growth inhibition after 2 to 7 days; format: functional; details: read-out: ED50 (the source's name)
Pyricularia oryzae [2] = assay: Antifungal activity against Magnaporthe oryzae assessed as colony color change after 2 to 7 days; format: functional, organism-based
Alternaria brassicicola [3] = assay: Antifungal activity against Alternaria brassicicola assessed as colony color change after 2 to 7 days; format: functional, organism-based
Pyricularia oryzae [4] = assay: Antifungal activity against Magnaporthe oryzae assessed as growth inhibition after 2 to 7 days; format: functional; details: read-out: ED50 (the source's name)
Penicillium digitatum [5] = assay: Antifungal activity against Penicillium digitatum assessed as colony color change after 2 to 7 days; format: functional, organism-based
Nakataea oryzae [6] = assay: Antifungal activity against Magnaporthe salvinii assessed as growth inhibition after 2 to 7 days; format: functional; details: read-out: ED50 (the source's name)
Cytospora ceratosperma [7] = assay: Antifungal activity against Valsa ceratosperma assessed as growth inhibition after 2 to 7 days; format: functional; details: read-out: ED50 (the source's name)
Verticillium dahliae [8] = assay: Antifungal activity against Verticillium dahliae assessed as growth inhibition after 2 to 7 days; format: functional; details: read-out: ED50 (the source's name)
Pythium [9] = assay: Antifungal activity against Pythium sp. assessed as growth inhibition after 2 to 7 days; format: functional; details: read-out: ED50 (the source's name)
Bipolaris oryzae [10] = assay: Antifungal activity against Bipolaris oryzae assessed as growth inhibition after 2 to 7 days; format: functional; details: read-out: ED50 (the source's name)
Pseudomonas [11] = assay: Antibacterial activity against Pseudomonas lachrymans assessed as colony color change after 2 days; format: functional, organism-based
Sclerotinia sclerotiorum [12] = assay: Antifungal activity against Sclerotinia sclerotiorum assessed as growth inhibition after 2 to 7 days; format: functional; details: read-out: ED50 (the source's name)
Pyricularia grisea [13] = assay: Inhibition of Magnaporthe grisea infection of rice plant at 0.01 % sprayed onto inoculated rice seedlings at every 2 hr from 2 to 12 hr after inoculation measured after 10 hr; format: functional, organism-based
Pythium [14] = assay: Antifungal activity against Pythium sp. assessed as colony color change after 2 to 7 days; format: functional, organism-based
Bipolaris oryzae [15] = assay: Antifungal activity against Bipolaris oryzae assessed as colony color change after 2 to 7 days; format: functional, organism-based
Thanatephorus cucumeris [16] = assay: Antifungal activity against Thanatephorus cucumeris assessed as colony color change after 2 to 7 days; format: functional, organism-based
Verticillium dahliae [17] = assay: Antifungal activity against Verticillium dahliae assessed as colony color change after 2 to 7 days; format: functional, organism-based
Alternaria brassicicola [18] = assay: Antifungal activity against Alternaria brassicicola assessed as growth inhibition after 2 to 7 days; format: functional; details: read-out: ED50 (the source's name)
[19] = test system: Xanthomonas campestris pv. oryzae; assay: Antibacterial activity against Xanthomonas campestris pv. oryzae assessed as colony color change after 2 days; format: functional, organism-based
[20] = test system: Botryosphaeria kuwatsukai; assay: Antifungal activity against Botryosphaeria berengeriana f.sp. pyricola assessed as growth inhibition after 2 to 7 days; format: functional; details: read-out: ED50 (the source's name)
Sclerotinia sclerotiorum [21] = assay: Antifungal activity against Sclerotinia sclerotiorum assessed as colony color change after 2 to 7 days; format: functional, organism-based
Pseudomonas [22] = assay: Antibacterial activity against Pseudomonas lachrymans assessed as growth inhibition after 2 days; format: functional; details: 48 h, read-out: ED50 (the source's name)
Phytophthora nicotianae [23] = assay: Antifungal activity against Phytophthora nicotianae var. parasitica assessed as growth inhibition after 2 to 7 days; format: functional; details: read-out: ED50 (the source's name)
[24] = test system: Botryosphaeria kuwatsukai; assay: Antifungal activity against Botryosphaeria berengeriana f.sp. pyricola assessed as colony color change after 2 to 7 days; format: functional, organism-based
Pyricularia grisea [25] = assay: Inhibition of Magnaporthe grisea infection of rice plant at 0.01 % sprayed onto inoculated rice seedlings at every 2 hr from 2 to 12 hr after inoculation measured after 8 hr; format: functional, organism-based
Colletotrichum lagenaria [26] = assay: Antifungal activity against Colletotrichum lagenaria assessed as growth inhibition after 2 to 7 days; format: functional; details: read-out: ED50 (the source's name)
Nakataea oryzae [27] = assay: Antifungal activity against Magnaporthe salvinii assessed as colony color change after 2 to 7 days; format: functional, organism-based
Fusarium fujikuroi [28] = assay: Antifungal activity against Fusarium fujikuroi assessed as colony color change after 2 to 7 days; format: functional, organism-based
Pyricularia grisea [29] = assay: Inhibition of Magnaporthe grisea infection of rice plant at 0.01 % sprayed onto inoculated rice seedlings at every 2 hr from 2 to 12 hr after inoculation measured after 6 hr; format: functional, organism-based
Pyricularia oryzae [30] = assay: Inhibition of spore germination in Magnaporthe oryzae up to 40 ppm after 24 hr; format: functional, organism-based
Pyricularia oryzae [31] = assay: Inhibition of appressorium formation in Magnaporthe oryzae up to 40 ppm after 24 hr; format: functional, organism-based
Phytophthora nicotianae [32] = assay: Antifungal activity against Phytophthora nicotianae var. parasitica assessed as colony color change after 2 to 7 days; format: functional, organism-based
[33] = test system: Xanthomonas campestris pv. oryzae; assay: Antibacterial activity against Xanthomonas campestris pv. oryzae assessed as growth inhibition after 2 days; format: functional; details: 48 h, read-out: ED50 (the source's name)
Colletotrichum lagenaria [34] = assay: Antifungal activity against Colletotrichum lagenaria assessed as colony color change after 2 to 7 days; format: functional, organism-based
[35] = test system: Fusarium oxysporum f. sp. lycopersici; assay: Antifungal activity against Fusarium oxysporum f. sp. lycopersici assessed as colony colour change after 2 to 7 days; format: functional, organism-based
Fusarium fujikuroi [36] = assay: Antifungal activity against Fusarium fujikuroi assessed as growth inhibition after 2 to 7 days; format: functional; details: read-out: ED50 (the source's name)
Pyricularia oryzae [37] = assay: Inhibition of dark brown pigmentation formation in appressorium cells of Magnaporthe oryzae at > 0.1 ppm after 24 hr; format: functional, organism-based
Cytospora ceratosperma [38] = assay: Antifungal activity against Valsa ceratosperma assessed as colony color change after 2 to 7 days; format: functional, organism-based
Botrytis cinerea [39] = assay: Antifungal activity against Botryotinia fuckeliana assessed as growth inhibition after 2 to 7 days; format: functional; details: read-out: ED50 (the source's name)
Penicillium digitatum [40] = assay: Antifungal activity against Penicillium digitatum assessed as growth inhibition after 2 to 7 days; format: functional; details: read-out: ED50 (the source's name)
[41] = test system: Pectobacterium carotovorum; assay: Antibacterial activity against Pectobacterium carotovorum assessed as growth inhibition after 2 days; format: functional; details: 48 h, read-out: ED50 (the source's name)
[42] = test system: Pectobacterium carotovorum; assay: Antibacterial activity against Pectobacterium carotovorum assessed as colony color change after 2 days; format: functional, organism-based
Botrytis cinerea [43] = assay: Antifungal activity against Botryotinia fuckeliana assessed as colony color change after 2 to 7 days; format: functional, organism-based
[44] = test system: Fusarium oxysporum f. sp. lycopersici; assay: Antifungal activity against Fusarium oxysporum f. sp. lycopersici assessed as growth inhibition after 2 to 7 days; format: functional; details: read-out: ED50 (the source's name)

CC[C@]1(C(=O)N[C@H](C)c2ccc(Cl)cc2)[C@H](C)C1(Cl)Cl (relative stereo) [trans-Carpropamid]
active: Activity (Pyricularia oryzae [2]) | Activity (Alternaria brassicicola [3]) | Activity (Bipolaris oryzae [15]) | Activity (Thanatephorus cucumeris [16]) | Activity (Verticillium dahliae [17]) | Activity [24] | Activity (Nakataea oryzae [27]) | inhibition (Pyricularia grisea [29]) | Activity (Colletotrichum lagenaria [34]) | Activity (Cytospora ceratosperma [38])
50 µg/mL: EC50 (Phytophthora nicotianae [23])
200 µg/mL: EC50 (Pythium [9])
> 200 µg/mL: EC50 (Thanatephorus cucumeris [1]) | EC50 (Pyricularia oryzae [4]) | EC50 (Nakataea oryzae [6]) | EC50 (Cytospora ceratosperma [7]) | EC50 (Verticillium dahliae [8]) | EC50 (Bipolaris oryzae [10]) | EC50 (Sclerotinia sclerotiorum [12]) | EC50 (Alternaria brassicicola [18]) | EC50 [20] | EC50 (Pseudomonas [22]) | EC50 (Colletotrichum lagenaria [26]) | EC50 [33] | EC50 (Fusarium fujikuroi [36]) | EC50 (Botrytis cinerea [39]) | EC50 (Penicillium digitatum [40]) | EC50 [41] | EC50 [44]
inactive: Activity (Penicillium digitatum [5]) | Activity (Pseudomonas [11]) | inhibition (Pyricularia grisea [13]) | Activity (Pythium [14]) | Activity [19] | Activity (Sclerotinia sclerotiorum [21]) | inhibition (Pyricularia grisea [25]) | Activity (Fusarium fujikuroi [28]) | inhibition (Pyricularia oryzae [30]) | inhibition (Pyricularia oryzae [31]) | Activity (Phytophthora nicotianae [32]) | Activity [35] | inhibition (Pyricularia oryzae [37]) | Activity [42] | Activity (Botrytis cinerea [43])
